Residues, ends and D or L forms follow the SMILES beside them. *: point of attachment. Cbz = O=C(OCc1ccccc1)*
What was measured:
[1] = test system: HIF-1α; test: Western blot analysis of HIF-1α in HEK 293 cells under ambient oxygen; assay type: cell-based, human; conditions: HEK 293, ambient oxygen, 1 hr
Method: The first unexpected finding was that the combination of DBM plus Zn^2+ reversed the induced stabilization of HIF-1α observed when the cells were exposed to either DBM or Zn^2+ alone under normoxic conditions (FIG. 15). HEK 293 embryonic kidney cells were incubated at ambient levels of oxygen for 1 hr with the addition of DBM alone, Zn^2+ alone or the combination. HIF-1α was not detected at baseline by Western blot (FIG. 15, lane 1).
One possible explanation for the loss of HIF-1α stabilization in cells treated with DBM plus Zn^2+ is chelation. DBM is a bidentate metal chelator that could itself bind to Zn^2+ in a 2:1 stochiometric ratio, however, the observed loss of HIF-1α stabilization occurred when either DBM or Zn^2+ was present in 50 μM excess at ratios of 4:1 (FIG. 15, lane 3) and 1:1 (FIG. 15, lane 5), respectively. […] Presumably, the increases in HIF-1α in FIG. 15 resulted from HIF P4H inhibition leading to diminished prolyl-4-hydroxylation and disruption of proteosomal degradation.

[2] = test system: HIF-1α; test: Western blot analysis of HIF-1α in HT144 melanoma cells under hypoxic conditions; assay type: cell-based, human; conditions: HT 144 cells; for HIF-1α levels by Western blot: 2 hours under 1% O2
Method: (§1) HT 144 melanoma cells (FIG. 16(A)) and HEK 293 embryonic kidney cells (FIG. 16(B)) were incubated for 2 hours under 1% O2. HIF-1α […].

[3] = test system: HIF-1α; test: Western blot analysis of HIF-1α in HEK 293 cells under hypoxic conditions; assay type: cell-based, human; conditions: for HIF-1α levels by Western blot: 2 hours under 1% O2
Method: as §1

[4] = test system: HIF-1α mRNA; test: Semiquantitative PCR of HIF-1α mRNA levels in HEK 293 cells under normoxia; assay type: cell-based, human; conditions: HEK 293, normoxia, 2 hours, serum free media
Method: The effects of DBM alone, Zn^2+ alone and DBM plus Zn^2+ on HIF-1αmRNA levels were assessed by semiquantitative PCR in extracts of HEK 293 kidney cells under normoxia for 2 hours in serum free media (FIG. 17). […] HIF-1αZ mRNA levels were not found to be increased (data not shown).

[5] = test system: HIF-1α; test: Western blot analysis of HIF-1α in HEK 293 cells with or without proteosome inhibitor MG-132, ambient oxygen; assay type: cell-based, human; conditions: HEK 293, ambient oxygen; for HIF-1α detection by Western blot: 2 hours, agent without further addition; for HIF-1α detection by Western blot with MG-132 added: agent plus MG-132
Method: Proteosomal degradation of HIF-1α was assessed in HEK 293 embryonic kidney cells treated with DBM alone, Zn^2+ alone or the combination under ambient oxygen in the presence or absence of the proteosome inhibitor MG-132 (FIG. 18). […] (FIG. 18, lane 5). […] The HIF-1α isoforms are more clearly resolved on the gel from FIG. 18 than FIG. 15. This may be due to differences in the time the gels were run.

[6] = test system: HIF-1α; test: HIF-1α detection in HEK 293 and HT144 cells treated with DBM plus metals; assay type: cell-based, human; conditions: cells exposed to DBM plus the metal
Excerpt: In subsequent studies, similar data has been found for HEK 293 human embryonic kidney cells and HT144 melanoma cells treated with either DBM or Zn^2+. […] This finding appears to be unique to the combination of DBM with Zn^2+ since it was not observed in cells exposed to DBM plus other metals such as Fe^3+, Co^2+, Cd^2+, and Ni^2+. Furthermore, this unexpected reversal of the independent effects of DBM and Zn^2+ was not blocked by hypoxia. These observations are counterintuitive since inhibitors of HIF P4H should impede degradation of HIF-1α. Also, these two HIF P4H inhibitors appear to work in concert under inhibitory conditions to down-regulate HIF-1α with little effect on HIF-1α mRNA levels.

[7] = test system: HIF-1α; test: Western blot analysis of HIF-1α in VHL (−/−) RCC-4 renal cell carcinoma cells, normoxic; assay type: cell-based, human; conditions: RCC-4 VHL (−/−), 1 hour
Excerpt: As expected, HIF-1α was detected by Western blot under normoxic conditions (FIG. 19, lane 1). […] These experiments have not been performed as yet in RCC4 cells with DBM alone or in RCC4 cells transfected with pVHL.

[8] = test system: HIF-1α and VEGF; conditions: LNCaP cells, ambient O2; cited from earlier work
[9] = test system: VEGF; conditions: patients with metastatic kidney cancer, high doses; cited from earlier work
VEGF, sequence (P15692 207-311 limits assumed): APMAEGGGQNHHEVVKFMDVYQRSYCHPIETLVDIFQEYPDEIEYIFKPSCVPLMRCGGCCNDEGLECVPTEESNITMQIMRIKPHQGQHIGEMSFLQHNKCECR

[Zn+2] [Zn^2+]
HIF-1α levels by Western blot ([1]; Zn^2+ alone 25 μM to 100 μM): increased HIF-1α levels in a dose dependent manner
HIF-1α levels by Western blot [2]: decreased the more rapidly migrating isoforms of HIF-1α
HIF-1α levels by Western blot [3]: little effect
HIF-1α mRNA levels (PCR product) [4]: not significantly different from baseline
HIF-1α detection by Western blot [5]: readily detected
HIF-1α detection by Western blot with MG-132 added [5]: did not stabilize these other forms of HIF-1α

[Fe+3] [Fe^3+, reference compound]
HIF-1α levels by Western blot, metal added to DBM ([2]; 2 hours under 1% O2, with DBM): did not significantly alter the effect of DBM on HIF-1α levels
HIF-1α levels by Western blot, metal added to DBM ([3]; 2 hours under 1% O2, with DBM): decreased slower migrating isoforms of HIF-1α
Loss of HIF-1α detection on simultaneous treatment with DBM plus metal [6]: not observed

[Ni+2] [Ni^2+]
Loss of HIF-1α detection on simultaneous treatment with DBM plus metal [6]: not observed

CC(C)C[C@@H](C=O)NC(=O)[C@H](CC(C)C)NC(=O)[C@H](CC(C)C)NC(=O)OCc1ccccc1 [MG-132, reference compound] (Cbz-Leu-Leu-Leu-aldehyde)
HIF-1α detection by Western blot [5]: accumulation of a broad range of proteins that possibly represent ubiquitinated forms of HIF-1α
HIF-1α detection by Western blot [7]: Stabilization of HIF-1α was enhanced

[Co+2] [Co^2+, reference compound]
Loss of HIF-1α detection on simultaneous treatment with DBM plus metal [6]: not observed
HIF-1α and VEGF levels [8]: rapidly increase

bevacizumab: humanized monoclonal antibody specific for VEGF
Clinical response [9]: Clinical responses have been observed

[Cd+2] [Cd^2+]
Loss of HIF-1α detection on simultaneous treatment with DBM plus metal [6]: not observed

O=C(CC(=O)c1ccccc1)c1ccccc1 [DBM, 1,3-diphenylpropane-1,3-dione]
HIF-1α levels by Western blot ([1]; DBM alone at 100 μM): significant increase in HIF-1α levels
HIF-1α levels by Western blot [2]: significantly increased the levels of HIF-1α
HIF-1α levels by Western blot [3]: significantly increased the levels of HIF-1α
HIF-1α mRNA levels (PCR product) [4]: not significantly different from baseline
HIF-1α detection by Western blot [5]: readily detected
HIF-1α detection by Western blot with MG-132 added [5]: did not stabilize these other forms of HIF-1α
HIF-1α and VEGF levels [8]: rapidly increase

Reference: patent publication US20050119243A1, “HIF-1 inhibitors and methods of use thereof” (priority 2003, published 2005)
